Results: the NIST ThermoML archive (doi:10.1016/j.jct.2017.06.005)
Numbers after ± are expanded uncertainties.

Settings: 369.8 K; Liquid; Ebulliometric method (Recirculating still)

CCCO [propan-1-ol]
vapor or sublimation pressure: 100 ± 2 kPa
